From US20230143751A1, “Aromatic Compound And Use Thereof In Preparing Antineoplastic Drugs” (Shanghai Zheye Biotechnology Co. Ltd., priority 2020, published 2023)
Each block holds one molecule with its values, some of them ahead of it.

What was measured:
[1] = system: NCI-H358; assay: Cell proliferation inhibitory activity on NCI-H358, 3D model test (agarose colony formation); assay type: cell-based; details: for anti-cell proliferation activity against KRAS G12C mutant type cells NCI-H358 (in words): 3D model test; for IC50: Homo sapiens, NCI-H358, 3D agarose colony formation, NBT staining
Description: 100 μl of agarose gel with a high concentration was spread in a 96-well plate as the bottom agarose gel layer. Agarose with a low concentration and growth medium containing cells were mixed and then spread on the bottom agar layer, cooled and solidified, then incubated overnight at 37° C. Mother solutions were prepared from the test compounds by using DMSO, and then subjected to gradient elution with RPMI 1640 growth medium. The solutions of test compounds with different concentrations after gradient elution were added to the 96-well plate comprising an upper layer of agar gel-cells. Solvent control well was set up and the plate was incubated in a CO2 incubator. The drug-containing medium was changed during the incubation period and the cell growth situation was observed. After the incubation, the cells were stained with NBT and the number of cell colony formation was counted, and the IC50 values of the compounds inhibiting cell proliferation were derived.

[2] = system: MIA PaCa-2 cells; assay: Cell proliferation activity of MIA PaCa-2 by CellTiter-Glo reagent; assay type: cell-based; details: 72 h, CellTiter-Glo; for IC50: Homo sapiens, MIA PaCa-2, read-out: IC50 value of cell proliferation inhibitory activity of the compound on MIA PaCa-2
Description: (§1) MIA PaCa-2 cells in exponential growth phase were digested with trypsin-EDTA, plated in a 96-well plate with 2000-3000 cells per well, and incubated overnight at 37° C. with 5% CO2. Mother solutions were prepared from the test compounds by using DMSO, subjected to gradient elution with DMEM growth medium, and then added into the 96-well plate and incubated in an incubator for 72 h at 37° C. with 5% CO2. After the incubation, CellTiter-Glo test reagent with an equal volume was added into each well and the obtained 96-well plate was incubated after shaking. The chemiluminescence values were determined by microplate reader, and the IC50 values of the test compounds inhibiting the proliferation of MIA PaCa-2 cells were fitted and calculated by GraphPad Prism software.
The test method of inhibitory activity was the same as that in Test 2 in “Biological Tests” part.

[3] = system: NCI-H358 cells; assay: Cell proliferation activity of NCI-H358 by CellTiter-Glo reagent; assay type: cell-based; details: for IC50: Homo sapiens, NCI-H358, test 8, method of test 3, read-out: IC50 of proliferation inhibitory activity of the compound on NCI-H358 cell line
Description: as §1, with “NCI-H358” for “MIA PaCa-2”, “Mother solutions were prepared from the test compounds by using DMSO, subjected to gradient elution with DMEM growth medium, and then added into the 96-well plate and incubated in an incubator for 72 h at 37° C. with 5% CO2.” left out
The test method of inhibitory activity was the same as that in Test 3 in “Biological Tests” part.

[4] = Preliminary safety test, 5-day escalating oral dosing in Balb/c mice; assay type: in vivo; details: for water and food intake, activity and body weight during the administration period (in words): oral gavage once a day for 5 days, 200 to 800 mg/kg; for MTD at 5 days: both sexes, mouse, in vivo, oral gavage, initially suggested, read-out: maximum tolerated dose
Description: Test samples: Compound 3-2, Compound 3-6, Compound 3-12M, Compound 3-20, and Compound 4-8.
Animal species and number: Balb/c; 6 animals per group (half male and half female).
(§2) Administration mode: oral administration by gavage.
Animal grouping and administration dose: vehicle blank group, Compound 3-2 group (200 mg/kg, 400 mg/kg, 800 mg/kg), Compound 3-6 group (200 mg/kg, 400 mg/kg, 800 mg/kg), Compound 3-12M group (200 mg/kg, 400 mg/kg, 800 mg/kg), Compound 3-20 group (200 mg/kg, 400 mg/kg, 800 mg/kg), Compound 4-8 group (200 mg/kg, 400 mg/kg, 800 mg/kg).
Administration frequency: once a day for 5 days.
General clinical observations were performed 2 times a day (once in the morning and once in the afternoon) during the test period. Death, morbidity, respiration, secretions, feces, and diet, drinking situation and so on were observed, and the changes in body weight of the mice during the administration period were recorded. The animals in each group were euthanized after the administration, and all animals were dissected and subjected to gross observation.

[5] = system: MIA PaCa-2-derived xenograft tumor; assay: Pharmacodynamics test of MIA PaCa-2-derived xenograft tumor model in nude mice (test 6); assay type: in vivo; details: for inhibition effect on the growth of subcutaneously transplanted tumors derived from pancreatic cancer MIA paca-2 cells in nude mice (in words): 10 mg/kg QD×15 days; for Tumor inhibition rate (%): MIA PaCa-2 xenograft, nude mice, 10 mg/kg oral gavage QD×15 days
Description: Animal species and number: Balb/c Nude; 6 animals per group.
Test samples: Compound 3-2, Compound 3-6, Compound 3-20, Compound 3-12M.
Test groups: blank solvent control group; Compound 3-2 (10 mg/kg, QD×15 days), Compound 3-6 (10 mg/kg, QD×15 days), Compound 3-20 (10 mg/kg, QD×15 days), Compound 3-12M (10 mg/kg, QD×15 days).
Animal model establishment: MIA paca-2 tumor cells in logarithmic growth phase were cultured in vitro and collected, and inoculated subcutaneously into the right back of nude mice at a quantity of 5×10^6 cells/each. When the tumor volume reached 150-300 mm^3, the tumor-bearing nude mice were randomly grouped. Subsequently, the animals in each group were administered, and the day of the first administration was defined as day 1 of the test.
Administration route and frequency: oral administration by gavage; once a day.
General state observation: observation time and frequency: once a day; observation indexes or contents: including but not limited to administration location, appearance and signs, general behavioral activities, mental status, death and other abnormal performance of the animals. The animals were euthanized at the end of the test.
Tumor volume calculation: V=½×long diameter×short diameter^2 (mm^3). Tumor growth inhibition rate TGI (%) is used to evaluate the tumor inhibition efficacy of the compounds. TGI (%)=[1−(mean tumor volume in treatment group at the end of administration−mean tumor volume in treatment group at the beginning of administration)/(mean tumor volume in control group at the end of administration−mean tumor volume in control group at the beginning of administration)]×100%.

[6] = molecular target: KRAS G12C (Homo sapiens, UniProt P01116, G12C); assay: Effect on KRAS(G12C) enzyme activity (KRAS G12C/c-Raf binding, Eu/d2 energy transfer); assay type: biochemical
Sequence of KRAS G12C (P01116 1-188 isoform P01116-2 G12C): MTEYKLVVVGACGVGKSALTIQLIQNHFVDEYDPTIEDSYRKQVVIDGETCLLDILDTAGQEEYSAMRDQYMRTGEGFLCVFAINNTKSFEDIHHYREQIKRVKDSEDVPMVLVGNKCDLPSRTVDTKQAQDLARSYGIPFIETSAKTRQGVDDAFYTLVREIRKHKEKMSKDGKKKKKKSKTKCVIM
Description: Compound stock solution was taken, and the test compound was subjected to gradient elution in DMSO. The above diluted compound was added into a quantitative volume of enzyme reaction buffer and subjected to oscillation on a microplate oscillator for 20 min.
4 μL of enzyme was transferred to a 384-well reaction plate. 1 μL of the test compound was added into the 384-well reaction plate. The plate was sealed with sealing film, and the reaction plate with the compound was centrifuged at 1000 rpm for 1 min and incubated for 60 min. 5 μL of a mixture of substrate and antibody was transferred to the 384-well reaction plate. The plate was sealed with sealing film, then centrifuged at 1000 rpm for 1 min and incubated for 120 min at room temperature.
Ratiopositive control: average value of the ratios of 10 positive control wells; Rationegative control: average value of the ratios of 10 negative control wells.

[7] = system: NCI-H358-derived xenograft tumor; assay: Pharmacodynamics study of NCI-H358-derived xenograft tumor model, combination with Afatinib or Trametinib (test 10); assay type: in vivo, nude mice; details: i.g. QD×21 days, 3-2 10 mg/kg, Afatinib 10 mg/kg, Trametinib 0.1 mg/kg
Description: Animal species and number: Balb/c Nude; 6 animals per group. Test samples: […] Test groups: blank solvent control group; […] NCI-H358 tumor cells in logarithmic growth phase were cultured in vitro and collected, and inoculated subcutaneously into the right back of nude mice at a quantity of 5×10^6 cells/each. When the tumor volume reached 150-300 mm^3, the tumor-bearing nude mice were randomly grouped. Subsequently, the animals in each group were administered, and the day of the first administration was defined as day 1 of the test. Administration frequency: once a day. General state observation: observation time and frequency: once a day; observation indexes or contents: including but not limited to administration location, appearance and signs, general behavioral activities, mental status, death and other abnormal performance of the animals. The animals were euthanized at the end of the test. Tumor volume calculation: V=½×long diameter×short diameter^2 (mm^3).

[8] = system: Chinese hamster lung fibroblasts (CHL cells); details: from N Engl J Med 2020;383:1207-1217 supporting information; cited from earlier work
[9] = molecular target: T1, human-derived MDR1 (MDR1 coding P-gp) transporter protein (Homo sapiens, UniProt P08183); details: from N Engl J Med 2020;383:1207-1217 supporting information; cited from earlier work
T1 construct: expressed in transfected cells; host or cells: membrane vesicles expressing human MDR1
T1 sequence (P08183 whole entry): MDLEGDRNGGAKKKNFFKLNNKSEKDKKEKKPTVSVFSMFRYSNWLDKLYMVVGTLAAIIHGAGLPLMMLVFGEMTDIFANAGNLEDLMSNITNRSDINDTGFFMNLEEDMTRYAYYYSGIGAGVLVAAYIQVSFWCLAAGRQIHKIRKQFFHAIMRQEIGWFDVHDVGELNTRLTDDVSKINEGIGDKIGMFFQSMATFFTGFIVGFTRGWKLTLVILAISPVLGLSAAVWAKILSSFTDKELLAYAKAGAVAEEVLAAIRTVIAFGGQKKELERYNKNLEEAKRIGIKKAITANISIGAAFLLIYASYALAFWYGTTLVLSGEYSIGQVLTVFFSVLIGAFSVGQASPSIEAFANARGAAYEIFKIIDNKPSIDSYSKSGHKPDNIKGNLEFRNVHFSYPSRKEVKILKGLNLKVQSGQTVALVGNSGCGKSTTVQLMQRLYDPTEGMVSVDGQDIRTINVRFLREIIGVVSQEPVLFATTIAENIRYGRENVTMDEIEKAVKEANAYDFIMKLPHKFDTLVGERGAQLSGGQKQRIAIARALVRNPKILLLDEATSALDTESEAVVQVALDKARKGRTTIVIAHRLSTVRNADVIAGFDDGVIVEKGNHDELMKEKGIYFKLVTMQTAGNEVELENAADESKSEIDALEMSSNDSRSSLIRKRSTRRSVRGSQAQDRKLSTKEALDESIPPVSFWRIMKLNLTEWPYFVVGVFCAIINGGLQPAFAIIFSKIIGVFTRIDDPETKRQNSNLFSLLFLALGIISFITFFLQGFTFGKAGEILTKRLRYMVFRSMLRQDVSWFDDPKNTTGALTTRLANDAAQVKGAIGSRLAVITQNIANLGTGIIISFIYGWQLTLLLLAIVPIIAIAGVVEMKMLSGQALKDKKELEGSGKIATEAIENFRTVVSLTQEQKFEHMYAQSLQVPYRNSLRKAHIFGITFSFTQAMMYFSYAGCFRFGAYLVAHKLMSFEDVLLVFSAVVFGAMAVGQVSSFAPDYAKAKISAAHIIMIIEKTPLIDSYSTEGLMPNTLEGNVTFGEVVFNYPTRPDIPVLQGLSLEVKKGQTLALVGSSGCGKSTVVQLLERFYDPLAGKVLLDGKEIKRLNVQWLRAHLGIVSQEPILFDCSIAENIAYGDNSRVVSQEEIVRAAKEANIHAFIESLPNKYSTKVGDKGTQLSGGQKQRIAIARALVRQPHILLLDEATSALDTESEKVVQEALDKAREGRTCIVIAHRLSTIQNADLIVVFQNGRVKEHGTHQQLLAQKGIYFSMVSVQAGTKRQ

[10] = Acute toxicity test, single oral dose in SD rats; assay type: in vivo; details: rat, in vivo
Description: (§3) Test samples: Compound 3-2, and Compound 3-6.
(§4) Animal species and number: SD rat; 6 animals per group (half male and half female).
as §2
Animal grouping and administration dose: vehicle blank group, Compound 3-2 group (500 mg/kg, 1000 mg/kg, 2000 mg/kg), Compound 3-6 group (500 mg/kg, 1000 mg/kg, 2000 mg/kg).
Administration frequency: once.
(§5) Death, morbidity, respiration, secretions, feces, and diet, drinking situation and so on were observed, and the changes in body weight of the rats during the administration period were recorded. The contents of detailed clinical observation included but were not limited to behavioral activity, skin, coat, eyes, ears, nose, abdomen, external genitalia, anus, extremities, feet, and respiration. The animals in each group were euthanized at the end of observation period, and all animals were dissected and subjected to gross observation.

[11] = Safety test for repeated administration for 14 days in SD rats; assay type: in vivo; details: oral gavage once a day for 14 days, 50, 150, 400 mg/kg
Description: as §3, §4, §2
Animal grouping and administration dose: vehicle blank group, Compound 3-2 group (50 mg/kg, 150 mg/kg, 400 mg/kg), Compound 3-6 group (50 mg/kg, 150 mg/kg, 400 mg/kg).
Administration frequency: once a day for 14 days.
as §5, with “General clinical observations were performed 2 times a day (once in the morning and once in the afternoon) during the test period. Death,” for “Death,”, “of administration” for “of observation”

Structure (SMILES): [2H]C([2H])=Cc1cccc(F)c1-c1nc2c(cc1Cl)c(N1CCN(C(=O)C=C)C[C@@H]1C)nc(=O)n2-c1c(C)ccnc1C(C)C [Compound 3-20]
anti-cell proliferation activity against KRAS G12C mutant type cells NCI-H358 (in words) [1]: significant anti-cell proliferation activity
IC50 [1]: < 0.05 µM
anti-cell proliferation activity against KRAS G12C mutant type cells MIA PaCa-2 (in words) [2]: significant anti-cell proliferation activity
IC50 [2]: < 0.05 µM
IC50 [3]: 0.01 µM
cell proliferation inhibitory activity of NCI-H358 compared with AMG510 (in words) ([3]; test 8): better than AMG510
water and food intake, activity and body weight during the administration period (in words) [4]: no significant abnormality was showed
inhibition effect on the growth of subcutaneously transplanted tumors derived from pancreatic cancer MIA paca-2 cells in nude mice (in words) [5]: significant inhibition effect
Tumor inhibition rate (%) [5]: +++ (“+++” represents a tumor inhibition rate of >80%)
inhibitory activity on KRAS G12C enzyme compared with AMG510 (in words) [6]: remarkable better
IC50 ([6]; 60 min incubation with enzyme, read-out: IC50 value of the compound on KRAS G12C enzyme activity): 0.019 µM

Structure (SMILES): CN(C)C/C=C/C(=O)Nc1cc2c(Nc3ccc(F)c(Cl)c3)ncnc2cc1O[C@H]1CCOC1 [Afatinib]
Tumor inhibition rate (%) [7]: + (“+” represents a tumor inhibition rate of <130%)

Structure (SMILES): CC(=O)Nc1cccc(-n2c(=O)n(C3CC3)c(=O)c3c(Nc4ccc(I)cc4F)n(C)c(=O)c(C)c32)c1 [Trametinib]
Tumor inhibition rate (%) [7]: + (“+” represents a tumor inhibition rate of <130%)

IC50 [1]: < 0.05 µM
IC50 [2]: < 0.05 µM
Structure (SMILES): [2H]C([2H])=Cc1cccc(F)c1-c1nc2c(cc1F)c(N1CCN(C(=O)C=C)C[C@@H]1C)nc(=O)n2-c1c(C([2H])([2H])[2H])ccnc1C(C)C [Compound 4-3]

Structure (SMILES): [2H]C([2H])=Cc1ccccc1-c1nc2c(cc1Cl)c(N1CCN(C(=O)C=C)C[C@@H]1C)nc(=O)n2-c1c(C([2H])([2H])[2H])ccnc1C(C)C [Compound 4-8]
IC50 [1]: < 0.05 µM
IC50 [2]: < 0.05 µM
MTD at 5 days [4]: > 800 mg/kg
water and food intake, activity and body weight during the administration period (in words) [4]: no significant abnormality was showed

IC50 [1]: < 0.05 µM
IC50 [2]: < 0.05 µM
Structure (SMILES): [2H]C([2H])=Cc1ccccc1-c1nc2c(cc1F)c(N1CCN(C(=O)C=C)C[C@@H]1C)nc(=O)n2-c1c(C)ccnc1C(C)C [Compound 3-23]

IC50 [3]: 0.041 µM
Structure (SMILES): C=CC(=O)N1CCN(c2nc(=O)n(-c3c(C)ccnc3C(C)C)c3nc(-c4c(O)cccc4F)c(F)cc23)[C@@H](C)C1 [AMG510]
chromosome aberration effect test result (in words) [8]: positive result
substrate for P-gp (in words) [9]: is a substrate

Structure (SMILES): C=CC(=O)N1CCN(c2nc(=O)n(-c3c(C)ccnc3C(C)C)c3nc(-c4c(F)cccc4C=C)c(Cl)cc23)[C@@H](C)C1 [Compound 3-6]
anti-cell proliferation activity against KRAS G12C mutant type cells NCI-H358 (in words) [1]: significant anti-cell proliferation activity
IC50 [1]: < 0.05 µM
anti-cell proliferation activity against KRAS G12C mutant type cells MIA PaCa-2 (in words) [2]: significant anti-cell proliferation activity
IC50 [2]: < 0.05 µM
IC50 [3]: 0.011 µM
MTD at 5 days [4]: > 800 mg/kg
water and food intake, activity and body weight during the administration period (in words) [4]: no significant abnormality was showed
inhibition effect on the growth of subcutaneously transplanted tumors derived from pancreatic cancer MIA paca-2 cells in nude mice (in words) [5]: significant inhibition effect
Tumor inhibition rate (%) [5]: +++ (“+++” represents a tumor inhibition rate of >80%)
MTD ([10]; both sexes, SD rats, single oral gavage, 500, 1000, 2000 mg/kg, read-out: maximum tolerated dose (MTD)): ≥ 2000 mg/kg
death or morbidity after single dose (in words) [10]: No animals in each group were dead or close to death
water and food intake, activity and body weight during the administration period (in words) [11]: no significant abnormality was showed
